SMILES strings stand for the structures.

The values that follow come from patent publication US20220354834A1, “METHODS AND MATERIALS FOR TREATING NEUROTOXICITY” (Cavion, Inc., priority 2019, published 2022).

Series [1] in a line: CIPN-reversal study: body weight, tolerability, mortality. Particulars: rat, in vivo. The series is classed as in vivo. How it is done:
Rats were housed 2-3 per cage under similar environmental conditions as nude mice in the interference study.
(§1) Wistar female rats (n=52) (Envigo, Correzzano, Italy) at 10-11 weeks of age were utilized. The study was divided into 2 phases of 4 weeks each. […] Body weight was measured periodically during phase 1 from baseline (day 1) to day 28. At baseline and conclusion of phase 1 (day 28), nerve conduction velocity (NCV) was performed on caudal and sciatic nerves and Dynamic Aesthesiometer Test (DAT) measured mechanical threshold (MT) of the hind paw. […] Body weight was measured periodically from baseline (day 28) to day 56 (termination). NCV and MT were measured in all 4 groups at baseline and on day 35 and 56. […] At termination, sciatic nerves were obtained for β-tubulin polymerization and skin samples were procured for intraepidermal nerve fiber (IENF) density and histopathology.

For series [2], the system named is caudal nerves (BTZ-induced CIPN). Put plainly: CIPN-reversal study: caudal nerve conduction velocity. Format: in vivo, Wistar rat. The procedure:
as §1
NCV (meters/second) was obtained from caudal and sciatic nerves with an electromyography tool (Myto 2, ABN Neuro, Firenze, Italy). Caudal NCV was measured by placement of recording needle electrodes distally in the tail with stimulating needle electrodes 5 cm and 10 cm proximal to recording point. Peak latencies of potentials recorded at the 2 sites after nerve stimulation were determined and NCV was calculated. Sciatic NCV was determined by placement of needle recording electrodes near ankle bone and stimulating electrodes close to thigh. Peak latencies were recorded similar to caudal nerve and NCV was calculated. NCV was performed under standard conditions in a temperature-controlled facility (22±2° C.) and rats were under isoflurane anesthesia with monitoring of vital signs.

For series [3], the system named is hind paw mechanical allodynia (BTZ-induced CIPN). Put plainly: CIPN-reversal study: Dynamic Aesthesiometer Test, mechanical threshold. Format: in vivo, Wistar rat. How it is done: as §1
MT was assessed with the DAT device (Model 37450, Ugo Basile Biological Instruments, Comerio, Italy). After acclimation, a servo-controlled pointed metallic filament (0.5 mm diameter) was placed on plantar surface of the hind paw and exerted a progressive punctate pressure up to 50 grams within 20 seconds. The pressure elicited a voluntary hind paw withdrawal response that was recorded and represented MT index. MT was collected alternatively on each side every 2 minutes on 3 occasions to yield a mean value. Mean MT values represented maximum pressure (grams) tolerated by each rat. Exposure of each animal to mechanical stimulus was limited to 30 seconds.

Series [4] concerns β-tubulin. Kind of series: β-tubulin polymerization assay in sciatic nerve. Format: in vivo, Wistar rat. Particulars: week 8. The procedure: as §1
At day 56, animals were euthanized by CO2 inhalation and tissue samples were procured from 4 rats per group. Right sciatic nerve was frozen in liquid nitrogen for β-tubulin polymerization assay and plantar glabrous skin samples were collected for IENF density.
Protein extracts from sciatic nerves were processed similar to the proteasome assay except for lysis buffer that contained freshly added protease and […] (10 mM sodium orthovanadate, 4 mM phenylmethylsulfonyl fluoride, 1% aprotinin and 20 mM sodium pyrophosphate). Protein extracts were centrifuged (14000 rpm for 10 minutes at 4° C.) to separate soluble (S) free tubulin fractions from polymerized (P) fractions. Supernatants were collected and pellets of polymerized tubulin were resuspended by sonication for 20 seconds in a volume of lysis buffer supplemented with 0.5% sodium deoxycholate (equivalent to S fraction). Protein aliquots (10 μg) were placed onto 13% SDS-PAGE and, after electrophoresis, were transferred to nitrocellulose filters. Immunoblotting analysis was performed using mouse anti-β-tubulin antibody. After incubation with primary antibody, membrane was washed and incubated with horseradish peroxidase conjugated to […] (Perkin Elmer Italia SPA, Monza, Italy). The ECL chemiluminescence system (Amersham GE Healthcare Europe GmbH, Milano, Italy) was used for detection. Band intensity was quantified with Gel Logic 100 Image System (Eastman Kodak, Rochester, N.Y., USA). Final mean values were obtained from triplicate experiments and data were expressed as percentage of P/P+S in treated rats compared to controls.

Series [5] is described as follows: In vivo anti-tumor (interference) study: body weight. On the set-up: species or system athymic nude mouse. The conditions noted are these: 1 mg/kg BTZ alone iv twice weekly, 28 days. From the text: Care and husbandry of mice complied with USDA (U.S. Department of Agriculture) Animal Welfare Act and START IACUC (Institutional Animal Care and Use Committee) regulations. The protocol was reviewed and approved by START IACUC. Mice were individually housed in Sealsafe® Plus ventilated cages (Techniplast, West Chester, Pa., USA) and fed with Teklad 2919 (Envigo, Somerset, N.J., USA), irradiated, 19% protein, 9% fat and 4% fiber mouse chow. Mice were maintained under controlled environmental conditions (22+/−2° C. temperature, 55+/−10% relative humidity and 12-hour light/dark cycle (7 a.m.-7 p.m.).
South Texas Accelerated Research Therapeutics (START) (San Antonio, Tex., USA) conducted this study. […] The 30 mg/kg dose was tolerated in preclinical safety studies and anticipated to result in exposures in excess of the therapeutic range for 28 days. Body weight, TV and animal observations were collected twice per week to day 18 (termination) for vehicle control mice and twice per week to day 28 (termination) for each of the other 3 groups. Mean±SD body weight and TV were analyzed with Kruskal-Wallis and Dunn multiple comparison test at day 18 and with Mann Whitney test at day 28 with statistical significance at p<0.05.

For the compound `CC(C)C[C@H](NC(=O)[C@H](Cc1ccccc1)NC(=O)c1cnccn1)B(O)O` [BTZ, bortezomib, reference compound], in series [1], the body weight change result is “not significantly different” and the tolerability result was “well tolerated”. The “caudal NCV” value in series [2] (BTZ vs control at weeks 4, 5 and 8 (p<0.01, p<0.05, p<0.001)) was “significantly reduced”. In addition, in series [2] (CTRL vs BTZ, P < 0.001 ***), the “NCV OF CAUDAL NERVE (8 weeks), Difference in rank sum (Dunn's Multiple Comparison Test)” value amounted to 37.00. Besides, the “NCV OF CAUDAL NERVE (5 weeks), Difference in rank sum (Dunn's Multiple Comparison Test)” value in series [2] (CTRL vs BTZ, P < 0.05 *) was found to be 15.75. Also, in series [3] (CTRL vs BTZ, P < 0.001 ***), the “DYNAMIC TEST 8 WEEKS, Difference in rank sum (Dunn's Multiple Comparison Test)” value amounted to 23.19. In series [3] (CTRL vs BTZ, P < 0.05 *), the “DYNAMIC TEST 5 WEEKS, Difference in rank sum (Dunn's Multiple Comparison Test)” value was found to be 17.24. Besides, the “mechanical threshold (MT) in hind paws” value in series [3] (week 4, BTZ vs control, p<0.0001) is reported as “significantly reduced”. The “TUBULIN POLYMERIZATION, Difference in rank sum (Dunn's Multiple Comparison Test)” value in series [4] (CTRL vs BTZ, P < 0.05 *) is −14.74. In addition, the “β-tubulin polymerization (%)” value in series [4] (BTZ alone vs control, p<0.05) is reported as “significantly increased”. The body weight entry in series [5] is “transient body weight loss during first two weeks of treatment and no weight gain at day 18 and 28”.
